{"source": "PubChem BioAssay AID180", "about": "(DTP/NCI, 2004)", "tested_on": "BDF1 mice, Adenocarcinoma 755 s.c., tumor weight T/C", "assay": "NCI In Vivo Anticancer Drug Screen. Data for tumor model Adenocarcinoma 755 (subcutaneous) in B6D2F1 (BDF1) mice", "conditions": "endpoint: mean tumor weight, schedule: Q01DX011 (ip), higher = larger tumour", "how_it_was_run": "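Compound activity was tested in mice carrying transplanted tumors. Survival or tumor size was measured, and each value is the treated-group measurement divided by that of the vehicle-treated control group (T/C).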", "key": {"[1]": {"conditions": "dose: 25.0 mg/kg/injection, vehicle: carboxymethylcellulose (CMC)"}, "[2]": {"conditions": "dose: 50.0 mg/kg/injection, vehicle: carboxymethylcellulose (CMC)"}, "[3]": {"conditions": "dose: 30.0 mg/kg/injection, vehicle: carboxymethylcellulose (CMC)"}, "[4]": {"conditions": "dose: 60.0 mg/kg/injection, vehicle: carboxymethylcellulose (CMC)"}, "[5]": {"conditions": "dose: 120.0 mg/kg/injection, vehicle: carboxymethylcellulose (CMC)"}}, "note": "Values joined by “and” are separate entries in the source; they are usually repeats but may differ in a detail not shown here. Equal entries are not always repeated.", "data": [{"smiles": "CCc1nc(N)nc(N)c1-c1ccc(Cl)cc1", "values": [{"measurement": "T/C", "setting": "dose: 3.0 mg/kg/injection, vehicle: methylcellulose (MC)", "value": "52 % of control"}, {"measurement": "T/C", "setting": "dose: 6.0 mg/kg/injection, vehicle: methylcellulose (MC)", "value": "38 % of control"}, {"measurement": "T/C", "setting": "dose: 6.25 mg/kg/injection, vehicle: carboxymethylcellulose (CMC)", "value": "77 % of control"}, {"measurement": "T/C", "setting": "dose: 11.85 mg/kg/injection, vehicle: carboxymethylcellulose (CMC)", "value": "82 % of control"}, {"measurement": "T/C", "setting": "dose: 12.0 mg/kg/injection, vehicle: methylcellulose (MC)", "value": "49 % of control"}, {"measurement": "T/C", "setting": "dose: 12.5 mg/kg/injection, vehicle: carboxymethylcellulose (CMC)", "value": "99 % of control"}, {"measurement": "T/C", "setting": "dose: 23.7 mg/kg/injection, vehicle: carboxymethylcellulose (CMC)", "value": "116 % of control"}, {"measurement": "T/C", "setting": "[1]", "value": "115 % of control"}, {"measurement": "T/C", "setting": "dose: 25.0 mg/kg/injection, vehicle: methylcellulose (MC)", "value": "62 % of control"}, {"measurement": "T/C", "setting": "dose: 47.4 mg/kg/injection, vehicle: carboxymethylcellulose (CMC)", "value": "105 % of control"}, {"measurement": "T/C", "setting": "[2]", "value": "72 % of control"}, {"measurement": "T/C", "setting": "dose: 50.0 mg/kg/injection, vehicle: methylcellulose (MC)", "value": "71 % of control"}, {"measurement": "T/C", "setting": "dose: 62.5 mg/kg/injection, vehicle: methylcellulose (MC)", "value": "43 % of control"}]}, {"smiles": "Nc1nc(=S)c2ncn(C3CCCC3)c2[nH]1", "values": [{"measurement": "T/C", "setting": "dose: 3.1 mg/kg/injection, vehicle: methylcellulose (MC)", "value": "37 % of control"}, {"measurement": "T/C", "setting": "dose: 6.2 mg/kg/injection, vehicle: methylcellulose (MC)", "value": "8 % of control"}]}, {"smiles": "CC1CCC(n2cnc3c([N+](C)(C)C)ncnc32)O1", "note": "(centres undefined)", "values": [{"measurement": "T/C", "setting": "dose: 15.0 mg/kg/injection, vehicle: saline", "value": "58 % of control"}, {"measurement": "T/C", "setting": "dose: 30.0 mg/kg/injection, vehicle: saline", "value": "35 % of control and 40 % of control"}, {"measurement": "T/C", "setting": "dose: 60.0 mg/kg/injection, vehicle: saline", "value": "5 % of control"}, {"measurement": "T/C", "setting": "dose: 120.0 mg/kg/injection, vehicle: saline", "value": "1 % of control"}]}, {"smiles": "Nc1nc(NCc2ccccc2)cc(=O)[nH]1", "values": [{"measurement": "T/C", "setting": "dose: 55.0 mg/kg/injection, vehicle: methylcellulose (MC)", "value": "66 % of control"}, {"measurement": "T/C", "setting": "dose: 165.0 mg/kg/injection, vehicle: methylcellulose (MC)", "value": "49 % of control"}]}, {"smiles": "C[N+](C)(C)c1ncnc2nc[nH]c12", "values": [{"measurement": "T/C", "setting": "dose: 1.25 mg/kg/injection, vehicle: saline", "value": "89 % of control and 77 % of control"}, {"measurement": "T/C", "setting": "dose: 2.5 mg/kg/injection, vehicle: saline", "value": "61 % of control and 75 % of control and 86 % of control"}, {"measurement": "T/C", "setting": "dose: 11.25 mg/kg/injection, vehicle: saline", "value": "44 % of control"}, {"measurement": "T/C", "setting": "dose: 20.0 mg/kg/injection, vehicle: saline", "value": "6 % of control and 12 % of control"}, {"measurement": "T/C", "setting": "dose: 22.5 mg/kg/injection, vehicle: saline", "value": "3 % of control"}, {"measurement": "T/C", "setting": "dose: 40.0 mg/kg/injection, vehicle: saline", "value": "1 % of control and 3 % of control"}, {"measurement": "T/C", "setting": "dose: 45.0 mg/kg/injection, vehicle: saline", "value": "1 % of control"}, {"measurement": "T/C", "setting": "dose: 80.0 mg/kg/injection, vehicle: saline", "value": "1 % of control and 4 % of control"}, {"measurement": "T/C", "setting": "dose: 90.0 mg/kg/injection, vehicle: saline", "value": "1 % of control"}, {"measurement": "T/C", "setting": "dose: 160.0 mg/kg/injection, vehicle: saline", "value": "1 % of control and 3 % of control"}]}, {"smiles": "Cn1cnc(=N)c2[nH]cnc21", "values": [{"measurement": "T/C", "setting": "[3]", "value": "97 % of control"}, {"measurement": "T/C", "setting": "[4]", "value": "93 % of control"}, {"measurement": "T/C", "setting": "[5]", "value": "73 % of control"}, {"measurement": "T/C", "setting": "dose: 240.0 mg/kg/injection, vehicle: carboxymethylcellulose (CMC)", "value": "93 % of control"}]}, {"smiles": "C=CCSc1nc(N)nc2nc[nH]c12", "values": [{"measurement": "T/C", "setting": "dose: 2.0 mg/kg/injection, vehicle: methylcellulose (MC)", "value": "50 % of control"}, {"measurement": "T/C", "setting": "dose: 4.0 mg/kg/injection, vehicle: methylcellulose (MC)", "value": "41 % of control"}, {"measurement": "T/C", "setting": "dose: 16.0 mg/kg/injection, vehicle: methylcellulose (MC)", "value": "3 % of control"}]}, {"smiles": "O=C1NC(=O)C2(CCCc3ccc(N(CCCl)CCCl)cc32)N1", "note": "(centres undefined)", "values": [{"measurement": "T/C", "setting": "dose: 3.5 mg/kg/injection, vehicle: carboxymethylcellulose (CMC)", "value": "86 % of control"}, {"measurement": "T/C", "setting": "dose: 3.5 mg/kg/injection, vehicle: other", "value": "80 % of control"}, {"measurement": "T/C", "setting": "dose: 7.0 mg/kg/injection, vehicle: carboxymethylcellulose (CMC)", "value": "83 % of control"}, {"measurement": "T/C", "setting": "dose: 7.0 mg/kg/injection, vehicle: other", "value": "112 % of control"}, {"measurement": "T/C", "setting": "dose: 14.0 mg/kg/injection, vehicle: carboxymethylcellulose (CMC)", "value": "56 % of control"}, {"measurement": "T/C", "setting": "dose: 14.0 mg/kg/injection, vehicle: other", "value": "51 % of control"}, {"measurement": "T/C", "setting": "dose: 28.0 mg/kg/injection, vehicle: carboxymethylcellulose (CMC)", "value": "30 % of control"}, {"measurement": "T/C", "setting": "dose: 28.0 mg/kg/injection, vehicle: other", "value": "56 % of control"}, {"measurement": "T/C", "setting": "dose: 55.0 mg/kg/injection, vehicle: carboxymethylcellulose (CMC)", "value": "2 % of control"}, {"measurement": "T/C", "setting": "dose: 55.0 mg/kg/injection, vehicle: other", "value": "13 % of control"}]}, {"smiles": "Oc1ccc2ccccc2c1N=Nc1ccccc1", "values": [{"measurement": "T/C", "setting": "dose: 50.0 mg/kg/injection, vehicle: saline", "value": "69 % of control"}, {"measurement": "T/C", "setting": "dose: 100.0 mg/kg/injection, vehicle: saline", "value": "55 % of control"}, {"measurement": "T/C", "setting": "dose: 200.0 mg/kg/injection, vehicle: saline", "value": "50 % of control"}]}, {"smiles": "O=[N+]([O-])c1ccc(C=Nc2ccc3c(c2)C(Br)c2ccccc2-3)cc1", "note": "(centres undefined)", "values": [{"measurement": "T/C", "setting": "dose: 28.0 mg/kg/injection, vehicle: saline", "value": "113 % of control"}, {"measurement": "T/C", "setting": "dose: 55.0 mg/kg/injection, vehicle: saline", "value": "96 % of control"}, {"measurement": "T/C", "setting": "dose: 110.0 mg/kg/injection, vehicle: saline", "value": "73 % of control"}, {"measurement": "T/C", "setting": "dose: 220.0 mg/kg/injection, vehicle: saline", "value": "40 % of control and 44 % of control"}, {"measurement": "T/C", "setting": "dose: 440.0 mg/kg/injection, vehicle: saline", "value": "39 % of control"}]}, {"smiles": "CCCCCn1cnc2c(=S)nc[nH]c21", "values": [{"measurement": "T/C", "setting": "dose: 31.0 mg/kg/injection, vehicle: carboxymethylcellulose (CMC)", "value": "94 % of control"}, {"measurement": "T/C", "setting": "dose: 62.0 mg/kg/injection, vehicle: carboxymethylcellulose (CMC)", "value": "78 % of control"}, {"measurement": "T/C", "setting": "dose: 125.0 mg/kg/injection, vehicle: carboxymethylcellulose (CMC)", "value": "43 % of control"}, {"measurement": "T/C", "setting": "dose: 250.0 mg/kg/injection, vehicle: carboxymethylcellulose (CMC)", "value": "10 % of control"}, {"measurement": "T/C", "setting": "dose: 500.0 mg/kg/injection, vehicle: carboxymethylcellulose (CMC)", "value": "6 % of control"}]}, {"smiles": "NS(=O)(=O)c1nc(S(=O)(=O)O)c2[nH]cnc2n1", "values": [{"measurement": "T/C", "setting": "[3]", "value": "95 % of control"}, {"measurement": "T/C", "setting": "[4]", "value": "76 % of control"}, {"measurement": "T/C", "setting": "[5]", "value": "86 % of control"}]}, {"smiles": "CCOc1ccccc1C(=O)Nc1ccc(Br)cc1", "values": [{"measurement": "T/C", "setting": "dose: 12.0 mg/kg/injection, vehicle: carboxymethylcellulose (CMC)", "value": "66 % of control"}, {"measurement": "T/C", "setting": "[1]", "value": "45 % of control"}, {"measurement": "T/C", "setting": "[2]", "value": "40 % of control"}, {"measurement": "T/C", "setting": "dose: 100.0 mg/kg/injection, vehicle: carboxymethylcellulose (CMC)", "value": "28 % of control and 50 % of control"}, {"measurement": "T/C", "setting": "dose: 200.0 mg/kg/injection, vehicle: carboxymethylcellulose (CMC)", "value": "17 % of control and 23 % of control"}, {"measurement": "T/C", "setting": "dose: 400.0 mg/kg/injection, vehicle: carboxymethylcellulose (CMC)", "value": "7 % of control and 32 % of control"}, {"measurement": "T/C", "setting": "dose: 400.0 mg/kg/injection, vehicle: saline", "value": "32 % of control"}, {"measurement": "T/C", "setting": "dose: 700.0 mg/kg/injection, vehicle: carboxymethylcellulose (CMC)", "value": "22 % of control"}, {"measurement": "T/C", "setting": "dose: 800.0 mg/kg/injection, vehicle: carboxymethylcellulose (CMC)", "value": "42 % of control"}, {"measurement": "T/C", "setting": "dose: 800.0 mg/kg/injection, vehicle: saline", "value": "21 % of control"}]}]}
